Assay results reported in patent US20040034021A1, “Intravenous rifalazil formulation and methods of use thereof” (priority 2002, published 2004).
Converted amounts (≈) assume the structure as drawn.

What was measured:
[1] = tested on: S. aureus; assay: MIC by broth microdilution method; format: cell-based; settings: Staphylococcus aureus, CAMH broth, vehicle as in Example 2, 35-37° C., 20-24 hours
Experimental: The MIC (minimum inhibitory concentration) of rifalazil against S. aureus was determined by the broth microdilution method. A vehicle prepared as described in Example 2 was diluted in Cation Adjusted Mueller-Hinton (CAMH) broth to create working solutions that were 4× the maximum concentration to be tested on each microtiter plate. The 4× working solutions were added to the wells of the 96 well microtiter plate and serially diluted two-fold across 11 wells into CAMH.
To prepare the test strain inoculum, 3-5 colonies of S. aureus from a pure 18-24 hour culture grown on a primary agar plate were emulsified into demineralized water and adjusted to a 0.5 McFarland turbidity standard using a calibrated nephelometer. This suspension was then diluted further (1:100) into CAMH broth to yield an inoculum suspension containing approximately 10^6 CFU/ml. Aliquots of the inoculum suspension were added to the rifalazil-containing wells to yield a final concentration in the well of 1-8×10^5 CFU/ml. The microtiter plates were incubated at 35-37° C. for 20-24 hours. The MIC was read as the lowest concentration of the compound that inhibits visible growth.

[2] = solubility of rifalazil in aqueous test solutions (UV-Vis); format: physicochemical
Experimental: In order to determine its solubility, to a vial containing solid rifalazil was added a volume of aqueous test solution. The vial was capped and sonicated for about an hour and the remaining undissolved solids were left to settle overnight. The vial was then vortexed for 1 minute, sonicated for another 30 minutes, and centrifuged for 1 hour at 3500 RPM. The supernatent was separated from undissolved rifalazil. The concentration of rifalazil in the test solution was determined by UV-Vis absorbance using a suitable spectrophotometer. Using this method, the solubility of rifalazil was determined as a function of pH (see FIG. 1); in PEG 400-water, propylene glycol-water, and ethanol-water mixtures (see FIG. 2); in Tween-40-water and Tween-80-water mixtures (see FIG. 3); in dodecyltrimethylammonium bromide-water, sodium chenodeoxycholate-water, sodium Octylsulfate-water, sodium deoxycholate-water, sodium cholate-water, and sodium dodecylsulfate-water mixtures (see FIG. 4); in sodium dodecylsulfate- water mixtures at pH 5.4 and 7.4 (see FIG. 5); and in PEG-35 castor oil-water mixtures (see FIG. 6).

[3] = stability against hydrolytic degradation to des-acetyl rifalazil (HPLC); format: physicochemical
Experimental: Rifalazil solutions containing the micelle-forming excipient PEG-35 castor oil, prepared as described in Example 2, and without a micelle-forming excipient (15% ethanol, phosphate buffer pH=7.6, 0.9% NaCl) were monitored for stability against the hydrolytic degradation of rifalazil at temperatures of 25° C., 40° C., 50° C., and 60° C. (see FIGS. 7 and 8). The degradation was monitored for several days by HPLC for the disappearance of rifalazil or the appearance of des-acetyl rifalazil, the degradation product that results from the hydrolysis of rifalazil.

SMILES: CO[C@H]1/C=C/O[C@@]2(C)Oc3c(C)c(O)c4c(=O)c(c5oc6cc(N7CCN(CC(C)C)CC7)cc(O)c6nc-5c4c3C2=O)NC(=O)/C(C)=C\C=C\[C@H](C)[C@H](O)[C@@H](C)[C@@H](O)[C@@H](C)[C@H](OC(C)=O)[C@@H]1C [Rifalazil, rifalazil]
- MIC [1]: 0.015 µg/mL (≈ 0.0159 µM)
- ratio of 100 μg/mL (typical low IV dosage concentration) to solubility of the drug in water ([2]; water at pH 7 (FIG. 1)): 5,000 times
- solubility in water ([2]; water at physiological pH): virtually insoluble
- effect of micelle-forming excipient on hydrolytic degradation of rifalazil ([3]; PEG-35 castor oil solution of Example 2 vs 15% ethanol, phosphate buffer pH 7.6, 0.9% NaCl, 25-60° C. (FIGS. 7 and 8)): inhibits the hydrolytic degradation
- hydrolytic degradation of rifalazil ([3]; aqueous environments under ambient conditions, no micelle-forming excipient (FIG. 8)): occurs readily
